Where two headings read alike, the source gives them in different places.
Experiments:
[1] = cited from earlier work
[2] = tested on: A431 cells; assay: EGF-IRDye 700DX light-dependent killing; type: cell-based; details: for light-dependent killing: 24 hours
Method: Photo-activated EGF-IR700 cell killing was assessed in A431 cells. A431 cells were seeded at 5000 cells per well in 96 well white clear bottom dishes one day prior to the experiment. The following day, the A431 cells were washed three times with EMEM supplemented with 1% Penicillin/Streptomycin (serum free media). The A431 cells were then washed one time with serum free media, then incubated with serum free media containing 1 μg/mL of EGF-IRDye 700DX for one hour at 4° C. or serum free media only. […] The cells were then washed one time with serum free media.
To induce IR700-dependent killing, the cells were then illuminated with a 690 nm laser with 32 J/cm^2 of light or protected from light (“no light”). Cell death was evaluated as described in Example 6 using CellTox Green. The normalized percentage of dead cells was calculated by subtracting all wells by the percentage of dead cells from the no light serum free media only control, dividing by EGF-IRDye 700DX at 32 J/cm^2 minus the no light serum free media only control, and multiplied 100.
The effect of EGF-IRDye 700DX pre-exposure to white light versus green light on photo-activated cell killing was also evaluated in A431 cells. EGF-IRDye 700DX was pre-exposed to different types of light and the effect of light treatment on photo-activated killing activity was evaluated. Five microliters of EGF-IRDye 700DX conjugate (DAR 2) was added per clear HPLC vial at a EGF-IRDye 700DX concentration of 1.14 mg/mL. The following conditions were tested: (1) the antibody-IRDye 700DX conjugate stored at 4° C. protected from light (“4° C.”, used as the control); (2) antibody-IRDye 700DX conjugate placed in a clear glass HPLC tube under a Halogen lamp at 2500 lux for 24 hrs (“white light”); (3) antibody-IRDye 700DX conjugate placed in a clear glass HPLC tube wrapped in aluminum foil to protect from light exposure under Halogen lamp at 2500 lux for 24 hrs (“no light”), used as a control for thermal heating effects on the formation of aggregates); and (4) antibody-IRDye 700DX conjugate placed in a clear glass HPLC tube and exposed to green LED lamp at 2500 lux for 24 hrs (“green light”).
To assess cell killing activity, A431 cells were washed two times with serum free media, and incubated in serum free media alone for one hour at 4° C. The cells were then washed one time with serum free media and incubated with serum free media alone or serum free media containing 1 μg/mL of EGF-IRDye 700DX (“no light”), serum free media containing 1 μg/mL of EGF-IRDye 700DX pre-exposed to white light (“2500 Lux White light”), or serum free media containing 1 μg/mL EGF-IRDye 700DX pre-exposed to green light for one hour at 4° C. (“2500 Lux Green light”). The cells were then washed one time with serum free media.
To induce cell killing, the cells were either protected from light (light dose 0 J/cm^2) or were illuminated with a 690 nm laser with different light dosimetries (8 J/cm^2, 32 J/cm^2 or 64 J/cm^2).

[3] = tested on: BxPC3 pancreatic cancer cells; assay: In vitro PIT with panitumumab conjugates; type: cell-based; details: 10 μg/mL; for killing: 8 J/cm^2 at 690 nm
Method: The two conjugates were tested for efficiency in killing cells in an in vitro PIT assay using the pancreatic cancer line BxPC3. BxPC3 were seeded into 96-well white-wall plates (4,000 cells/well) the day before the experiment. Antibody conjugates were added to cells at a concentration of 10 μg/mL and were incubated for 2 hours at 37° C. Light of 690 nm was applied by a diode at a constant power output of 50 mW/cm^2. The illumination time was modulated to achieve the fluences 4 J/cm^2, 8 J/cm^2 or 16 J/cm^2. As a control, a group of cells was not irradiated with light (0 J/cm^2). To monitor the progression of cell death after light treatment, the conjugate containing medium was replaced by fresh medium containing CellTox Green (Promega), a dye that reports cell death based on compromised cell membrane integrity. Time dependent increase in cell death was observed over 24 hours.

[4] = tested on: human iDCs; assay: DC activation after priming with PIT-killed FaDu cells and Poly I:C treatment; type: cell-based; details: 1 μg/mL overnight, DCs primed with FaDu cells PIT-killed with Cetuximab IRDye 700DX, vs no light controls
Method: FaDu cells grown in complete EMEM media were plated in 100 μL total volume per well in a 96 well tissue culture plate for adherence overnight. […] PIT cell killing was induced by illumination with a 690 nm laser light at a fluence of 12 J/cm^2. The controls represented wells corresponding to the groups not treated with light.
For co-culture, human iDCs (Astarte Biologics) from a healthy donor were directly added into the wells with PIT killed tumor cells and into control wells (non-PIT treated tumor cells). The co-cultures were then incubated for 48 hours at 37° C. in the CO2 incubator. The harvested DCs were then subjected to poly I:C treatment (1 μg/mL) for overnight. The cells were then detached using a non-enzymatic detachment solution.
The harvested cells from various treatment conditions were incubated with live/dead discrimination dye Zombie Green (BioLegend, 1:500) for 20 min at room temperature followed by washing with stain buffer. Cells were resuspended in stain buffer and human Fc blocking reagent (BD) was then added and cells were incubated for 20 min at room temperature. […]
Appropriate gating was performed while analyzing the data to exclude cell debris, and the data was analyzed with gating performed on live events. The results described below are based on median fluorescence intensity (MFI) data from each group which is plotted as fold increase over the no light controls.

[5] = in vivo, 400 mg/m2; cited from earlier work

Oc1cccc(-c2c3nc(c(-c4cccc(O)c4)c4ccc([nH]4)c(-c4cccc(O)c4)c4nc(c(-c5cccc(O)c5)c5ccc2[nH]5)CC4)C=C3)c1 [Foscan®, meta-tetrahydroxyphenylchlorin]
extinction coefficient ([1]; 652 nm): 22000 M⁻¹ cm⁻¹

C=Cc1c(C)c2cc3nc(c(CC(=O)N[C@@H](CC(=O)[O-])C(=O)[O-])c4[nH]c(cc5nc(cc1[nH]2)C(C)=C5CC)c(C)c4C(=O)[O-])[C@@H](CCC(=O)[O-])[C@@H]3C.[Na+].[Na+].[Na+].[Na+] [NPe6/Laserphyrin®, mono-L-aspartylchlorin e6]
extinction coefficient [1]: 40000 M⁻¹ cm⁻¹

EGF-IRDye 700DX: human recombinant epidermal growth factor (EGF) conjugated to IRDye 700DX (NSDSECPLSHDGYCLHDGVCMYIEALDKYACNCVVGYIGERCQYRDLKWWELR; Epidermal growth factor IRDye 700DX dye; UniProt P01133 971-1023, looked up)
cell killing ([2]; 1 μg/mL, 32 J/cm^2 vs no light): light-dependent killing
cell killing ([2]; cells pre-exposed to 100 μg/mL unconjugated cetuximab): blocked light-dependent cell killing
light-dependent killing ([2]; conjugate pre-exposed to green light, 2500 lux): exhibited light-dependent killing activity comparable
light-dependent killing ([2]; conjugate pre-exposed to white light, 2500 lux): no longer exhibited light-dependent killing activity
light-dependent killing ([2]; conjugate protected from light under halogen lamp): exhibited light-dependent killing

Pan-IRDye 700DX-Alexa-488: panitumunab conjugated both to IRDye 700DX and Alexa Fluor 488
cell killing ([3]; 4 J/cm^2 at 690 nm): only marginally effective
killing [3]: 73%
cell killing ([3]; 16 J/cm^2 at 690 nm): near complete cell killing

Pan-IRDye 700DX: anti-human EGFR antibody drug panitumumab conjugated only with IRDye 700DX
cell killing ([3]; 4 J/cm^2 at 690 nm): only marginally effective
killing [3]: 74%
cell killing ([3]; 16 J/cm^2 at 690 nm): near complete cell killing

Photofrin®
extinction coefficient [1]: 1200 M⁻¹ cm⁻¹

Poly I:C
CD80 and CD86 expression levels [4]: increased CD80 and CD86 expression levels

cetuximab: anti-EGFR antibody cetuximab (Erbitux), not conjugated
AUC0-∞ [5]: 24,740 μg/mL*h

— patent US11147875B2, “Compositions, combinations and related methods for photoimmunotherapy” (priority 2015, dated 2021)
